The target of assay [1] is T1, GABA-A alpha2 receptor (alpha 2 subunit together with a beta and a gamma subunit) (Homo sapiens, UniProt P18507+P47869).
T1 construct: expressed in transfected cells
T1 sequence (P47869 29-451): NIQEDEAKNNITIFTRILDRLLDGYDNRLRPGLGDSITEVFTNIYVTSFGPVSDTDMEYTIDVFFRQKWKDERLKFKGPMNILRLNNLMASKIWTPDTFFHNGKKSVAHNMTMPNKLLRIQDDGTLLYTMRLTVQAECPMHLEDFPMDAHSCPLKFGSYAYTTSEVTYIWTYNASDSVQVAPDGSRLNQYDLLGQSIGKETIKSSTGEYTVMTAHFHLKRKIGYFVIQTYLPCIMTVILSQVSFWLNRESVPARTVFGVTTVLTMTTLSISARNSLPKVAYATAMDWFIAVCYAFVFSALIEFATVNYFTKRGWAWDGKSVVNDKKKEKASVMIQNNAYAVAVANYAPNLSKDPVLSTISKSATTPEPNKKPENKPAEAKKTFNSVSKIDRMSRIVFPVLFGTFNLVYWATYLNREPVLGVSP
T1 sequence (P47870 25-512 partner limits assumed): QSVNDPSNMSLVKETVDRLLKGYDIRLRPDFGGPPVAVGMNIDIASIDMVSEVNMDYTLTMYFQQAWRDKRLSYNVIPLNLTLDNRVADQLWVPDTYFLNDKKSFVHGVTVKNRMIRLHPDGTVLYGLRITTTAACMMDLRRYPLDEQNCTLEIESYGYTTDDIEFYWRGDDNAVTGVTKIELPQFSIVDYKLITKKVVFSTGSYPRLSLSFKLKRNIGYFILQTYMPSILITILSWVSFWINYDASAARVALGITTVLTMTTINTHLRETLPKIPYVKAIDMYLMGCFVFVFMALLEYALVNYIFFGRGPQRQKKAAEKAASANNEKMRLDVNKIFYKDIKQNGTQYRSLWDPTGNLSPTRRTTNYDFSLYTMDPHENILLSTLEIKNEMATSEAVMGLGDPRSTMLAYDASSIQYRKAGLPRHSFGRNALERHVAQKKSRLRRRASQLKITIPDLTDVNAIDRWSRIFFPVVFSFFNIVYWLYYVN
T1 sequence (P18507 40-467 limits assumed): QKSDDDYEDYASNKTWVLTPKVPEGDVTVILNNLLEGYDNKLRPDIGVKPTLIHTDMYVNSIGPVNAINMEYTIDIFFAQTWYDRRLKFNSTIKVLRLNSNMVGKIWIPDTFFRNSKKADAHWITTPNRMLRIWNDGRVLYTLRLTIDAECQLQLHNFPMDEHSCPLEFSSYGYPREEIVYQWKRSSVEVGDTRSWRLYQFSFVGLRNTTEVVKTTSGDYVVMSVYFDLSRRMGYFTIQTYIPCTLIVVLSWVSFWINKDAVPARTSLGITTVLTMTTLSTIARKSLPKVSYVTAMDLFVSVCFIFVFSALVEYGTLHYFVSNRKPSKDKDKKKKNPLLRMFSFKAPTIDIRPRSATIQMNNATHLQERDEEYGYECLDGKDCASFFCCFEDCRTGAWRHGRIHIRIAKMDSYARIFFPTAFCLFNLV
Nature of the assay: GABA-A receptor modulation, voltage-sensitive dye fluorescence in transfected eukaryotic cell line (alpha2). It is filed as cell-based. The following applies: compounds at 3 μM, sub-maximal concentration of GABA (EC20); for activation at 3 µM: read-out: alpha2 % mod (percentage of increase of the fluorescent signal compared to signal without the agent). The text has this: (§1) GABA-A receptor modulators show in functional assays a positive modulation of GABA-induced signals. This modulation can be determined in vitro, e.g., at recombinant GABA-A receptors expressed in a mammalian cell line, e.g. by measurement of GABA-A receptor induced changes of the trans-membrane voltage, when using a voltage-sensitive dye and a fluorescence detection system (Adkins, C. E., Pillai, G. V., Kerby, J., Bonnert, T. P., Haldon, C., Mckernan, R. M., Gonzalez, J. E., Oades, K., Whiting, P. J. & Simpson, P. B. [2001]. alpha4beta3delta GABA-A receptors characterized by fluorescence resonance energy transfer-derived measurements of membrane potential. J. Biol. Chem., 276, 38934-38939). In this assay, a modulator compound is pre-applied at different concentrations ranging from 0.1 nM to 10 μM to cells expressing GABA-A receptors and loaded with the voltage-sensitive dye, before, or at the same time as, a sub-maximal concentration of GABA (in the range of from 0.1 to 10 μM) is applied to the cells. The fluorescent signal is correlated with the degree of GABA-A receptor channel opening. This allows the quantification of effects induced by the modulator in a functional manner. By expression of different GABA-A receptor subunit combinations, the differential efficacy of a modulator at different GABA-A receptor variants can be tested. Other functional assays include the electrophysiological recording of Xenopus oocytes or mammalian cells expressing respective receptor variants. In addition, ion flux detectors can be used to functionally study GABA-A receptors in heterologous expression systems. The affinity of a compound to the GABA-A receptor can be measured in radioligand binding experiments using reference ligands containing a radioactive element, e.g., tritiated flumazenil, and intact cells or membrane preparations of cells expressing GABA-A receptors.
(§2) Activity and selectivity of a GABA-A receptor modulator according to the invention can, e.g., be determined in vitro as follows: A transfected eukaryotic cell line expressing the alpha1, alpha2 or alpha3 subunit of the GABA-A receptor together with a beta and a gamma subunit of the GABA-A receptor is incubated with a voltage-sensitive dye, and the effects of an agonist (typically GABA) or modulator addition are recorded in a fluorimetric plate reader. The opening of the GABA-A receptor channel and the subsequent flux of anions through it changes the trans-membrane voltage of the transfected cells, leading to a change in the fluorescent signal of the voltage-sensitive dye. In the presence of the agent of the invention, a sub-maximal concentration of GABA (e.g. an EC20 or an EC50) added to transfected cells expressing the alpha1, alpha2 or alpha3 subunit of the GABA-A receptor will elicit an at least 50%, preferably an at least 80%, ideally an at least 100%, increase, of the fluorescent signal, compared to the fluorescent signal obtained without the agent of the invention. In this assay, agents of the invention modulate the GABA-induced response at concentration from about 0.1 to about 10′000 nM.

Assay [2] deals with T2, GABA-A alpha1 receptor (alpha 1 subunit together with a beta and a gamma subunit) (Homo sapiens, UniProt P14867+P18507).
T2 construct: expressed in transfected cells
T2 sequence (P14867 28-456): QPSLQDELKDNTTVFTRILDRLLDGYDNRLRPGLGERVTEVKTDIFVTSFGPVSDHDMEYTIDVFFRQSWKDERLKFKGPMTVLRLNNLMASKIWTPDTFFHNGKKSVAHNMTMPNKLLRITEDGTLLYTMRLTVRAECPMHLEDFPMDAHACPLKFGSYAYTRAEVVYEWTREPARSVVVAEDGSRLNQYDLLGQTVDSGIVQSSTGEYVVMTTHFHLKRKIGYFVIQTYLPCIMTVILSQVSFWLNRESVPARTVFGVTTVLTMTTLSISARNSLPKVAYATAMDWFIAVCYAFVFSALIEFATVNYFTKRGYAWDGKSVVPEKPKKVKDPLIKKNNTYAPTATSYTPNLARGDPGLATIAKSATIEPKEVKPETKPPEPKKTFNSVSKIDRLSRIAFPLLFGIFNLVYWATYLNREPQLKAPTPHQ
T2 sequence (P47870 25-512 partner limits assumed): T1 sequence (P47870 25-512 partner limits assumed)
T2 sequence (P18507 40-467 limits assumed): T1 sequence (P18507 40-467 limits assumed)
Nature of the assay: GABA-A receptor modulation, voltage-sensitive dye fluorescence in transfected eukaryotic cell line (alpha1). In kind it is cell-based. Conditions: compounds at 3 μM, sub-maximal concentration of GABA (EC20); for activation at 3 µM: read-out: alpha1 % mod (percentage of increase of the fluorescent signal compared to signal without the agent).
Description: as §1, §2

As to `COc1ccc(-n2nc3c(cnc4ccccc43)c2OCCN2CCOCC2)cc1` [Example 18, 2-(4-methoxyphenyl)-3-(2-morpholin-4-ylethoxy)-2H-pyrazolo[4,3-c]quinoline], the activation at 3 µM in assay [1] stood at 196%; in assay [2], 67%.
Taken in the same sequence, the figures for `COc1ccc(-n2nc3c(cnc4ccccc43)c2OCCOc2ccccc2)cc1` [Example 13, 2-(4-methoxyphenyl)-3-(2-phenoxyethoxy)-2H-pyrazolo[4,3-c]quinoline] were 52% and -29%.
Taken in the same sequence, the figures for `Fc1ccc(-n2nc3c(cnc4ccccc43)c2OCc2ccccc2Cl)cc1` [Example 63, 3-[(2-chlorobenzyl)oxy]-2-(4-fluorophenyl)-2H-pyrazolo[4,3-c]quinoline] were 60% and 9%.
In the same order, the values of `Fc1cccc2c1ncc1c(OCc3ccc(Cl)cc3)n(-c3ccccc3)nc12` [Example 33, 3-[(4-chlorobenzyl)oxy]-6-fluoro-2-phenyl-2H-pyrazolo[4,3-c]quinoline] are 73% and 39%.
As to `COc1ccc(-n2nc3c(cnc4ccccc43)c2OCc2ccc(Cl)nc2)cc1` [Example 62, 3-[(6-chloropyridin-3-yl)methoxy]-2-(4-methoxypheny1)-2H-pyrazolo[4,3-c]quinoline], in assay [1], the “alpha2 % mod (percentage of increase of the fluorescent signal compared to signal without the agent)” value was determined as 141 % mod. Further, the “alpha1 % mod (percentage of increase of the fluorescent signal compared to signal without the agent)” value in assay [2] stood at 55 % mod.
Regarding `Fc1ccc(-n2nc3c(cnc4ccccc43)c2OCc2ccccc2C(F)(F)F)cc1` [Example 50, 2-(4-fluorophenyl)-3-{[2-(trifluoromethyl)benzyl]oxy}-2H-pyrazolo[4,3-c]quinoline], the activation at 3 µM in assay [1] was found to be 236%; in assay [2], 47%.
Taken in the same sequence, the figures for `Clc1ccc(-n2nc3c(cnc4ccccc43)c2OCC2CCCC2)cc1` [Example 91, 2-(4-Chloro-phenyl)-3-cyclopentylmethoxy-2H-pyrazolo[4,3-c]quinoline] were 84% and 55%.
On to `N#Cc1ccc2ncc3c(OCc4ccc(Cl)cc4)n(-c4ccccc4)nc3c2c1` [Example 32, 3-[(4-chlorobenzyl)oxy]-2-phenyl-2H-pyrazolo[4,3-c]quinoline-8-carbonitrile], for which the activation at 3 µM came out at 88% in assay [1] and 34% in assay [2].
In the same order, the values of `Clc1ccc(-n2nc3c(cnc4ccc(Br)cc43)c2OCc2ccccc2Cl)cc1` [Example 115, 8-Bromo-3-(2-chloro-benzyloxy)-2-(4-chloro-phenyl)-2H-pyrazolo[4,3-c]quinoline] are 66% and 26%.
Taken in the same sequence, the figures for `Clc1ccc(-n2nc3c(cnc4ccccc43)c2OCC2CCO2)cc1` (stereo not shown) [Example 98, 2-(4-Chloro-phenyl)-3-(oxetan-2-ylmethoxy)-2H-pyrazolo[4,3-c]quinoline] were 97% and 53%.
Taken in the same sequence, the figures for `Clc1ccc(-n2nc3c(cnc4ccc(-n5ccnc5)cc43)c2OCC2CCCC2)cc1` [Example 113, 2-(4-Chloro-phenyl)-3-cyclopentylmethoxy-8-imidazol-1-yl-2H-pyrazolo[4,3-c]quinoline] were 88% and 63%.
Consider `COc1ccc(-n2nc3c(cnc4ccccc43)c2OCCc2ccc(Cl)cc2)cc1` [Example 14, 3-[2-(4-chlorophenyl)ethoxy]-2-(4-methoxyphenyl)-2H-pyrazolo[4,3-c]quinoline], for which the activation at 3 µM was determined as 34% in assay [1] and 3% in assay [2].
On to `CCCCOc1c2cnc3ccccc3c2nn1-c1ccccc1` [Example 4, 3-butoxy-2-phenyl-2H-pyrazolo[4,3-c]quinoline], for which the activation at 3 µM was found to be 126% in assay [1] and 137% in assay [2].
In the same order, the values of `Clc1ccc(-n2nc3c(cnc4ccc(-n5ccnc5)cc43)c2OCCc2ccccc2Cl)cc1` [Example 114, 2-(4-Chloro-phenyl)-3-[2-(2-chloro-phenyl)-ethoxy]-8-imidazol-1-yl-2H-pyrazolo[4,3-c]quinoline] are 129% and 108%.
In the case of `Fc1ccc(-n2nc3c(cnc4ccccc43)c2OCc2ccccc2F)cc1` [Example 28, 3-[(2-fluorobenzyl)oxy]-2-(4-fluorophenyl)-2H-pyrazolo[4,3-c]quinoline], the activation at 3 µM in assay [1] came out at 146%; in assay [2], 34%.
Take `CN1CCN(CCOc2c3cnc4ccccc4c3nn2-c2ccc(Cl)cc2)CC1` [Example 99]: the “alpha2 % mod (percentage of increase of the fluorescent signal compared to signal without the agent)” value in assay [1] was determined as 121 % mod. Further, in assay [2], the “alpha1 % mod (percentage of increase of the fluorescent signal compared to signal without the agent)” value came to 58 % mod.
On to `Fc1ccccc1-n1nc2c(cnc3ccccc32)c1OCCc1ccccc1Cl` [Example 16, 3-[2-(2-chlorophenyl)ethoxy]-2-(2-fluorophenyl)-2H-pyrazolo[4,3-c]quinoline], for which the activation at 3 µM was 101% in assay [1] and 18% in assay [2].

The values are drawn from patent publication US20110294799A1, “Organic Compounds” (NOVARTIS AG, priority 2007, published 2011).
